{
  "source": "patent US6784153B1",
  "about": "“Methods of homing molecules to lung using membrane dipeptidase” (The Burnham Institute, priority 1998, dated 2004)",
  "key": {"MDP [1]": {"test_system": "MDP", "conditions": "cited from earlier work"}, "[2]": {"test_system": "C8161 human melanoma cells"}, "MDP [3]": {"biological_target": "T1, MDP (Mus musculus, UniProt P31428)", "T1 construct": "The amplified 1.3 kb murine MDP cDNA was digested with KpnI and XbaI, and inserted into the same sites of the pcDNA3 expression vector; expressed in transfected cells; host or cells: COS-1 cells, pcDNA3 expression vector", "T1 sequence (P31428 17-384)": "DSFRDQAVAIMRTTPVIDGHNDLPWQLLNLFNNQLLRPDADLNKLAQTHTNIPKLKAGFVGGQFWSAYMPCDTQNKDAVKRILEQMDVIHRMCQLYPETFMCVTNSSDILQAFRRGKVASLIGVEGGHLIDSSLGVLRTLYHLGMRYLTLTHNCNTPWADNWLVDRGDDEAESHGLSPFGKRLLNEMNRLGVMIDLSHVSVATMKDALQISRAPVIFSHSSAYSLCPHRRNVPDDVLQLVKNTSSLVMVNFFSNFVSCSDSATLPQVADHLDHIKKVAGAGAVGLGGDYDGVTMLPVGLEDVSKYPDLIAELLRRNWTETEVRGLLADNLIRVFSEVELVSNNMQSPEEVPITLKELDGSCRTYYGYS", "test": "inhibition of MDP activity (hydrolysis of Gly-D-Phe, fluorimetric)", "type": "biochemical, murine", "conditions": "Gly-D-Phe 0.5 mM; extracts from MDP-expressing COS-1 cells", "description": "[…] […] Fluorescence was measured using an fmax fluorescence microplate reader from Molecular Devices (Sunnyvale, Calif.).\nPhage binding to COS-1 cells transfected with MDP was determined as follows. Briefly, 10^7 COS-1 cells were transfected with 10 μg of either the MDP expression vector or the vector alone. After 48 hours, cells were scraped gently from the dish, washed once, and subjected to the phage binding assay or membrane dipeptidase activity assay described above. For the phage binding assay, 5×10^6 cells and 10^10 transducing units (TU) of phage input were used. For measurement of membrane dipeptidase activity, 10^6 cells were lysed in 100 μl of PBS/octylglycoside without protease inhibitors. A 10 μl aliquot of the extract was used to measure MDP activity.\nFluorimetric detection of D-Phe was performed as described above."}, "lung primary cells": {"test_system": "lung primary cells", "test": "phage binding assay on lung primary cells", "design": "species or system mice", "conditions": "150 μM peptide", "description": "Phage binding to primary cells was performed as follows. Briefly, Balb/c mice (Harlan Sprague Dawley) were anesthetized with 0.017 ml/g of Avertin as described in Gardner et al., Lab. […] Under deep anesthesia, mice were perfused through the heart with 10 ml Dulbecco's modified Eagle's medium (DMEM; Irvine Scientific; Santa Ana, Calif.). The lungs, kidneys and brain were then collected, minced, placed in 2 ml of DMEM containing 0.5% BSA (Intergen; Purchase, N.Y.) and 0.5 μg/ml collagenase V (SIGMA) and incubated at 37° C. for 25 minutes. Following collagenase treatment, the tissue was forced through a […] pore cell strainer (Becton Dickinson; Franklin Lake, N.J.). The filtered cells were washed once with 10 ml DMEM supplemented with 10% serum.\nFor the binding reaction, 10^9 transducing units (TU) of phage were incubated with 5×10^6 cells in 1 ml DMEM supplemented with 10% serum. The binding was performed at 4° C. for 2 hours with gentle agitation. After the binding reaction, the cells were washed four times with 1 ml of DMEM supplemented with 10% serum at room temperature for 5 to 10 minutes each time. The cells were centrifuged, and the cell pellet resuspended in 100 μl of DMEM and transferred to a new tube. […] The bacteria were then diluted in 10 ml of LB culture media supplemented with 0.2 μg/ml tetracycline, and incubated for another 30 minutes at room temperature. Serial dilutions of the bacterial culture were plated on LB plates containing 40 μg/ml tetracycline. Plates were incubated at 37° C. overnight before the colonies were counted (transducing units, TU)."}, "[4]": {"biological_target": "T2, 55 kDa lung vascular surface protein (Mus musculus, UniProt P31428)", "T2 construct": "from tissue; host or cells: Balb/c mouse lung, in vivo biotinylated, octylglucoside extract", "T2 sequence (P31428 17-384)": "T1 sequence (P31428 17-384)", "test": "peptide affinity chromatography of in vivo biotinylated lung extract", "type": "binding", "conditions": "elution with GFE-1 peptide", "description": "In vivo biotinylation of endothelial cell surface proteins was performed as previously described in De La Fuente et al., Am. J. Physiol. […] Briefly, Balb/c mice were anesthetized with Avertin and perfused slowly through the heart for 10 to 15 minutes with approximately 15 ml of PBS containing 0.5 mg/ml of sulfo-NHS-LC-biotin (Pierce; Rockford, Ill.). Well perfused lungs or control tissues such as brain were then collected and incubated on ice for 20 minutes. The tissues were then homogenized for preparation of extracts as described further below.\nFor preparation of extracts, mouse or rat lungs were first minced and then homogenized with a Brinkman homogenizer (Brinkman; Wesbury, N.Y.) in a minimal volume (2.5 ml/g of tissue) of cold PBS containing 100 mM N-octyl-β-D-glucopyranoside (Calbiochem; La Jolla, Calif.) with 1 mM phenylmethylsulfonyl fluoride (PMSF), 20 μg/ml aprotinin and 1 μg/ml leupeptin (PBS/octylglucoside). The homogenized tissue was incubated on ice for 2 hours, and then centrifuged at 12,000×g for 30 minutes to remove cell debris. The pooled supernatants were cleared of any debris prior to affinity chromatogaphy.\nAll steps were performed at 4° C. […] The matrix contained approximately 2 mg/ml of peptide. […] The extract was applied to the column, and the flow-through re-applied over a period of 90 minutes. The column was then washed with 20 volumes of column buffer. […]"}},
  "data": [
    {"compound": "CCCCC/C=C(\\NC(=O)C1CC1(C)C)C(=O)O", "note": "(racemic) [Z-2-(2,2 dimethylcyclopropanecarboxamido)-2-octenoic acid]", "values": [
      {"measurement": "activity of resolved isomers", "setting": "MDP [1]", "result": "Activity resides in the dextrorotatory isomer"}
    ]},
    {"compound": "O=c1[nH]cc(F)c(=O)[nH]1", "note": "[CARAC, reference compound]", "values": [
      {"measurement": "toxicity to the melanoma cells", "setting": "[2]", "result": "Neither the GFE-1 (SEQ ID NO: 1) or CARAC (SEQ ID NO: 443) peptides exhibited toxicity"},
      {"measurement": "inhibition of hydrolysis of Gly-D-Phe by MDP", "setting": "MDP [3]", "result": "did not inhibit the enzyme"}
    ]},
    {"compound": "GRGESP: control peptide [reference compound]", "values": [
      {"measurement": "inhibition of GFE-1 phage binding to lung cells", "setting": "lung primary cells", "result": "no effect"},
      {"measurement": "binding of lung surface protein to peptide affinity column", "setting": "[4]", "result": "No proteins in the 55 kDa range were detected"}
    ]}
  ]
}
